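In this assay, cells in 96-well plates receive the compound at five concentrations for 48 hours. Endpoints are linearly interpolated between the surrounding concentrations. TGI marks complete inhibition of growth.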
Key:
Test in all cases: NCI tumour cell line growth inhibition, 48 h
786-0 renal = test system: 786-0 renal
A498 renal = test system: A498 renal
A549 NSCLC = test system: A549 NSCLC
ACHN renal = test system: ACHN renal
BT-549 breast = test system: BT-549 breast
CAKI-1 renal = test system: CAKI-1 renal
COLO 205 colon = test system: COLO 205 colon
DU-145 prostate = test system: DU-145 prostate
EKVX NSCLC = test system: EKVX NSCLC
HCC-2998 colon = test system: HCC-2998 colon
HCT-116 colon = test system: HCT-116 colon
HCT-15 colon = test system: HCT-15 colon
HL-60(TB) leukemia = test system: HL-60(TB) leukemia
HOP-62 NSCLC = test system: HOP-62 NSCLC
HOP-92 NSCLC = test system: HOP-92 NSCLC
HS 578T breast = test system: HS 578T breast
HT29 colon = test system: HT29 colon
IGROV1 ovarian = test system: IGROV1 ovarian
K-562 leukemia = test system: K-562 leukemia
KM12 colon = test system: KM12 colon
LOX IMVI melanoma = test system: LOX IMVI melanoma
M14 melanoma = test system: M14 melanoma
MALME-3M melanoma = test system: MALME-3M melanoma
MCF7 breast = test system: MCF7 breast
MDA-MB-231 breast = test system: MDA-MB-231 breast
MDA-MB-435 = test system: MDA-MB-435
MDA-N = test system: MDA-N
MOLT-4 leukemia = test system: MOLT-4 leukemia
NCI-H226 lung = test system: NCI-H226 lung
NCI-H23 lung = test system: NCI-H23 lung
NCI-H460 lung = test system: NCI-H460 lung
NCI-H522 lung = test system: NCI-H522 lung
NCI/ADR-RES ovarian = test system: NCI/ADR-RES ovarian
OVCAR-3 ovarian = test system: OVCAR-3 ovarian
OVCAR-4 ovarian = test system: OVCAR-4 ovarian
OVCAR-5 ovarian = test system: OVCAR-5 ovarian
OVCAR-8 ovarian = test system: OVCAR-8 ovarian
PC-3 prostate = test system: PC-3 prostate
RPMI-8226 leukemia = test system: RPMI-8226 leukemia
SF-268 CNS = test system: SF-268 CNS
SF-295 CNS = test system: SF-295 CNS
SF-539 CNS = test system: SF-539 CNS
SK-MEL-2 melanoma = test system: SK-MEL-2 melanoma
SK-MEL-28 melanoma = test system: SK-MEL-28 melanoma
SK-MEL-5 melanoma = test system: SK-MEL-5 melanoma
SK-OV-3 ovarian = test system: SK-OV-3 ovarian
SN12C renal = test system: SN12C renal
SNB-19 CNS = test system: SNB-19 CNS
SNB-75 CNS = test system: SNB-75 CNS
SR leukemia = test system: SR leukemia
SW-620 colon = test system: SW-620 colon
T-47D breast = test system: T-47D breast
U251 CNS = test system: U251 CNS
UACC-257 melanoma = test system: UACC-257 melanoma
UO-31 renal = test system: UO-31 renal
RXF 393 renal = test system: RXF 393 renal
TK-10 renal = test system: TK-10 renal
UACC-62 melanoma = test system: UACC-62 melanoma

For C/C(=N\NC(=S)Nc1ccccc1)c1nc2ncccc2[nH]1, the TGI (786-0 renal) was 74 µM, the TGI (A498 renal) was 33.1 µM and the TGI (A549 NSCLC) was greater than 100 µM. For the same compound, the TGI (ACHN renal) was 47.8 µM, the TGI (BT-549 breast) was 26.2 µM and the TGI (CAKI-1 renal) was greater than 100 µM. The TGI (COLO 205 colon) was greater than 100 µM, the TGI (DU-145 prostate) was 18.2 µM and the TGI (EKVX NSCLC) was 6.12 µM. The TGI (HCC-2998 colon) was 20.5 µM, the TGI (HCT-116 colon) was 14 µM and the TGI (HCT-15 colon) was 19.8 µM. It also gave a TGI (HL-60(TB) leukemia) greater than 100 µM, a TGI (HOP-62 NSCLC) of 59 µM and a TGI (HOP-92 NSCLC) greater than 100 µM. It also gave a TGI (HS 578T breast) of 77.7 µM, a TGI (HT29 colon) of 18.8 µM and a TGI (IGROV1 ovarian) of 24.2 µM. For the same compound, the TGI (K-562 leukemia) was 60.8 µM, the TGI (KM12 colon) was greater than 100 µM and the TGI (LOX IMVI melanoma) was 15.8 µM. It also gave a TGI (M14 melanoma) greater than 100 µM, a TGI (MALME-3M melanoma) of 57.7 µM and a TGI (MCF7 breast) of 20.3 µM. The TGI (MDA-MB-231 breast) was 55.5 µM, the TGI (MDA-MB-435) was 60.3 µM and the TGI (MDA-N) was greater than 100 µM. For the same compound, the TGI (MOLT-4 leukemia) was 16.8 µM, the TGI (NCI-H226 lung) was 13.2 µM and the TGI (NCI-H23 lung) was 48.7 µM. The TGI (NCI-H460 lung) was 13.8 µM, the TGI (NCI-H522 lung) was 17.1 µM and the TGI (NCI/ADR-RES ovarian) was 22 µM. For the same compound, the TGI (OVCAR-3 ovarian) was 17.1 µM, the TGI (OVCAR-4 ovarian) was 47.4 µM and the TGI (OVCAR-5 ovarian) was 61 µM. For the same compound, the TGI (OVCAR-8 ovarian) was 16 µM, the TGI (PC-3 prostate) was greater than 100 µM and the TGI (RPMI-8226 leukemia) was 84.4 µM. For the same compound, the TGI (SF-268 CNS) was 39 µM, the TGI (SF-295 CNS) was 18.3 µM and the TGI (SF-539 CNS) was 6.8 µM. For the same compound, the TGI (SK-MEL-2 melanoma) was 47 µM, the TGI (SK-MEL-28 melanoma) was 6.79 µM and the TGI (SK-MEL-5 melanoma) was 15 µM. The TGI (SK-OV-3 ovarian) was greater than 100 µM, the TGI (SN12C renal) was 36.3 µM and the TGI (SNB-19 CNS) was 60.1 µM. For the same compound, the TGI (SNB-75 CNS) was 79.2 µM, the TGI (SR leukemia) was greater than 100 µM and the TGI (SW-620 colon) was greater than 100 µM. The TGI (T-47D breast) was 24 µM, the TGI (U251 CNS) was 16.9 µM and the TGI (UACC-257 melanoma) was 11.1 µM. The TGI (UO-31 renal) was 7.47 µM.

With COc1cc(C)c2c(c1C=O)Oc1c(c(C)c(O)c3c1C(O)OC3=O)OC2=O (stereo not given) the TGI (786-0 renal) was greater than 100 µM, the TGI (A498 renal) was greater than 100 µM and the TGI (A549 NSCLC) was greater than 100 µM. The TGI (ACHN renal) was greater than 100 µM, the TGI (BT-549 breast) was greater than 100 µM and the TGI (CAKI-1 renal) was greater than 100 µM. For the same compound, the TGI (COLO 205 colon) was greater than 100 µM, the TGI (DU-145 prostate) was greater than 100 µM and the TGI (EKVX NSCLC) was greater than 100 µM. For the same compound, the TGI (HCC-2998 colon) was 44.5 µM, the TGI (HCT-116 colon) was greater than 100 µM and the TGI (HCT-15 colon) was 46.4 µM. The TGI (HL-60(TB) leukemia) was 48.4 µM, the TGI (HOP-62 NSCLC) was greater than 100 µM and the TGI (HOP-92 NSCLC) was greater than 100 µM. For the same compound, the TGI (HS 578T breast) was greater than 100 µM, the TGI (HT29 colon) was greater than 100 µM and the TGI (IGROV1 ovarian) was 60.9 µM. For the same compound, the TGI (KM12 colon) was 52.3 µM, the TGI (LOX IMVI melanoma) was greater than 100 µM and the TGI (M14 melanoma) was greater than 100 µM. The TGI (MALME-3M melanoma) was 52.6 µM, the TGI (MCF7 breast) was 74 µM and the TGI (MDA-MB-231 breast) was 68.3 µM. For the same compound, the TGI (MDA-MB-435) was greater than 100 µM, the TGI (MDA-N) was 43.8 µM and the TGI (MOLT-4 leukemia) was 49.5 µM. It also gave a TGI (NCI-H226 lung) greater than 100 µM, a TGI (NCI-H23 lung) of 95 µM and a TGI (NCI-H522 lung) of 83.8 µM. It also gave a TGI (NCI/ADR-RES ovarian) greater than 100 µM, a TGI (OVCAR-3 ovarian) greater than 100 µM and a TGI (OVCAR-4 ovarian) greater than 100 µM. For the same compound, the TGI (OVCAR-5 ovarian) was greater than 100 µM, the TGI (OVCAR-8 ovarian) was greater than 100 µM and the TGI (PC-3 prostate) was greater than 100 µM. For the same compound, the TGI (RPMI-8226 leukemia) was 49.6 µM, the TGI (RXF 393 renal) was 96.7 µM and the TGI (SF-268 CNS) was 68 µM. It also gave a TGI (SF-295 CNS) greater than 100 µM, a TGI (SF-539 CNS) greater than 100 µM and a TGI (SK-MEL-28 melanoma) greater than 100 µM. It also gave a TGI (SK-MEL-5 melanoma) of 61.5 µM, a TGI (SK-OV-3 ovarian) greater than 100 µM and a TGI (SN12C renal) greater than 100 µM. It also gave a TGI (SNB-19 CNS) of 60.4 µM, a TGI (SNB-75 CNS) greater than 100 µM and a TGI (SR leukemia) of 60.9 µM. The TGI (SW-620 colon) was greater than 100 µM, the TGI (T-47D breast) was 65.1 µM and the TGI (TK-10 renal) was greater than 100 µM. The TGI (U251 CNS) was greater than 100 µM, the TGI (UACC-257 melanoma) was greater than 100 µM and the TGI (UACC-62 melanoma) was 81.7 µM. It also gave a TGI (UO-31 renal) greater than 100 µM.

Work on CO[C@@H]1C[C@H]2[C@@H]3CC[C@H]([C@H](C)CO)[C@@]3(C)CC[C@@H]2[C@@]2(C)CC[C@H]3C[C@]312 yielded a TGI (786-0 renal) greater than 100 µM, a TGI (A498 renal) greater than 100 µM and a TGI (A549 NSCLC) greater than 100 µM. The TGI (ACHN renal) was greater than 100 µM, the TGI (BT-549 breast) was 49.9 µM and the TGI (CAKI-1 renal) was greater than 100 µM. For the same compound, the TGI (COLO 205 colon) was 35.3 µM, the TGI (DU-145 prostate) was greater than 100 µM and the TGI (EKVX NSCLC) was greater than 100 µM. It also gave a TGI (HCC-2998 colon) greater than 100 µM, a TGI (HCT-116 colon) greater than 100 µM and a TGI (HCT-15 colon) greater than 100 µM. It also gave a TGI (HL-60(TB) leukemia) of 47.2 µM, a TGI (HOP-62 NSCLC) greater than 100 µM and a TGI (HOP-92 NSCLC) of 63.6 µM. The TGI (HS 578T breast) was greater than 100 µM, the TGI (HT29 colon) was 40.8 µM and the TGI (IGROV1 ovarian) was greater than 100 µM. It also gave a TGI (K-562 leukemia) greater than 100 µM, a TGI (KM12 colon) of 35.9 µM and a TGI (LOX IMVI melanoma) of 46.5 µM. The TGI (M14 melanoma) was greater than 100 µM, the TGI (MALME-3M melanoma) was greater than 100 µM and the TGI (MCF7 breast) was 47.8 µM. For the same compound, the TGI (MDA-MB-231 breast) was greater than 100 µM, the TGI (MDA-MB-435) was greater than 100 µM and the TGI (MDA-N) was greater than 100 µM. The TGI (MOLT-4 leukemia) was greater than 100 µM, the TGI (NCI-H226 lung) was greater than 100 µM and the TGI (NCI-H23 lung) was greater than 100 µM. For the same compound, the TGI (NCI-H460 lung) was 74.8 µM, the TGI (NCI-H522 lung) was greater than 100 µM and the TGI (NCI/ADR-RES ovarian) was greater than 100 µM. For the same compound, the TGI (OVCAR-3 ovarian) was greater than 100 µM, the TGI (OVCAR-4 ovarian) was greater than 100 µM and the TGI (OVCAR-5 ovarian) was greater than 100 µM. The TGI (OVCAR-8 ovarian) was greater than 100 µM, the TGI (PC-3 prostate) was 92.6 µM and the TGI (RPMI-8226 leukemia) was 58 µM. For the same compound, the TGI (RXF 393 renal) was greater than 100 µM, the TGI (SF-268 CNS) was greater than 100 µM and the TGI (SF-295 CNS) was 85.9 µM. For the same compound, the TGI (SF-539 CNS) was greater than 100 µM, the TGI (SK-MEL-28 melanoma) was greater than 100 µM and the TGI (SK-MEL-5 melanoma) was 78.1 µM. For the same compound, the TGI (SN12C renal) was greater than 100 µM, the TGI (SNB-19 CNS) was greater than 100 µM and the TGI (SNB-75 CNS) was greater than 100 µM. The TGI (SR leukemia) was greater than 100 µM, the TGI (SW-620 colon) was greater than 100 µM and the TGI (T-47D breast) was greater than 100 µM. It also gave a TGI (TK-10 renal) greater than 100 µM, a TGI (U251 CNS) of 85.4 µM and a TGI (UACC-257 melanoma) of 86.5 µM. For the same compound, the TGI (UO-31 renal) was greater than 100 µM.
